This is an account of results in US20220054640A1, “COMPOSITIONS AND METHODS FOR THE DELIVERY OF THERAPEUTIC AGENTS ACROSS THE ROUND WINDOW MEMBRANE” (Decibel Therapeutics, Inc., priority 2018, published 2022).

Like-named read-outs stand apart in the source and are kept apart here. Ends that are not written are not given here. Peptide text beside a SMILES is read from it.

Data set [1] has as its system guinea pig RWM. The data set is described as follows: tight junction integrity of excised RWM in ex vivo culture. The class given is cell-based. Particulars: 1% peptide TFA salt in DMEM, 1 hour. An excerpt: The […] peptide is hypothesized to interfere with cellular tight junctions. To assess if this mechanism is relevant to the RWM, we excise the RWM from adult guinea pigs (Elm Hill Labs, Chelmsford, Mass.) and stain for a variety of adherens and tight junction proteins. To extract the guinea pig RWM, the temporal bone was removed from freshly sacrificed guinea pig tissue and placed in PBS. An incision was then made in the roof of the bulla to expose the cochlea, followed by trimming of the temporal bone, bulla, and middle ear bones to expose the RWM. The round window niche was then removed from the cochlea and then cultured in DMEM with and without 1% […].TFA for 1 hour. This tissue was then fixed in a 4% PFA solution for 30 minutes followed by wash with PBS (3 times, 5-minute incubations). […]

Data set [2] in a line: cochlear perilymph exposure upon intratympanic administration. The following applies: NT-3 formulation with permeation enhancer (peptide 1%).
The conditions of data set [3]: background statement, test not described; cited from earlier work.
The conditions of data set [4]: background statement; cited from earlier work.
In data set [5] the test system is tight and adherens junctions. The data set is described as follows: immunohistochemical staining of tight and adherens junctions after the in vitro permeability assay. Particulars: 3.5 hours of incubation at 37° C., NT-3 in vehicle or with 1% peptide. It is filed as cell-based. Here is the method: (§1) To further characterize the effects of peptide (XVI), the in vitro permeability assay was used to evaluate administration of NT-3 in either vehicle or 1% of peptide (XVI), as depicted in FIG. 18. In this experiment, cultures were incubated at 37° C. and 50 μL samples were collected at various time points. After 3.5 hours of incubation, the top and bottom media were collected separately and the insert was fixed for immunohistochemical staining to evaluate tight and adherens junctions.

Another data set deals with round window membrane. The data set is described as follows: in vitro permeability assay (apparent permeability, flux). The class given is in vitro ADME. The following applies: NT-3 incubated with 1% peptide; for NT-3 apparent permeability (Papp) compared to control: FIG. 22. As to the method:
To this end, an in vitro permeability assay was designed to test the apparent permeability of NT-3 against that of other compounds, the experimental design of which is shown in FIG. 1. After the initial formation of tight junctions, which was evaluated using transepithelial electrical resistance (TEER), 100 μL artificial perilymph (AP+) with API was added to the insert, and 500 μL AP+ was added to the bath. Cultures were incubated at 37° C. and 20 μL samples were collected at various time points.
as §1

Data set [6] has as its system guinea pig RWM. The data set is described as follows: RWM integrity after in vivo application. Particulars: 21 days post trans-tympanic injection, 0.1% peptide HCl salt. As to the method: To assess the capacity for the RWM to recover after application of the […] peptide we record ABR thresholds with and without application of a 50 μL formulation including 0.1% […].HCL to the guinea pig RWM via trans-tympanic injection. […] Post-injection (21 days), the guinea pigs in both the […] exposed and control groups were sacrificed, and the temporal bone was removed as described in Example 5, section (a).

Another data set can be described thus: ABR/hearing testing. It is filed as in vivo, guinea pig. As to the method: Prior to ABR recording, the tympanic membrane was inspected for otitis media using a surgical microscope. Animals with otitis media were excluded from the analysis. A TDT RZ6 system was used to record the auditory brainstem response (ABR). Animals were anaesthetized with zoletil (20 mg/kg, I.M.) and placed in a soundproof chamber. Three stainless needle recording electrodes were inserted just under the skin and connected to the appropriate input on the PA4LI low impedance headstage: Channel 1: Ipsilateral ear (same side as stimulus delivery); Reference: contralateral ear; Ground: Vertex (base of skull). A computer-controlled TDT RZ6 System was used to generate the auditory pure tone and power amplified before fed to a closed-field speaker to deliver sound stimuli. The same pure tone stimuli were repeated 512 times, the sound pressure levels were increased in a step of 10 dB SPL (5 dB around threshold) from 20 dB SPL to 90 dB SPL after every 512 repeated trials. The lowest sound level which induced a brainstem response was regarded as the threshold. The hearing thresholds were measured at 4, 24, and 32 kHz. ABR recording was performed before surgery or dosing and on the 7th and 14th day after the formulation dosing. The ABR was recorded first from the left ear and then from the right ear.

The conditions of data set [7]: guinea pig, not told.
Where [8] appears, read: listed as the peptide represented by formula (XVI).

On to “KLALKLALKALKLAALKLA.TFA (also: TFA salt)”, for which, in the data set with guinea pig RWM [1], the “junction protein structure in RWM” value is “disrupts occludin, ZO-1, and alpha-catenin, but not actin (as imaged via phalloidin), or beta-catenin structure”.
Take `CC1(C)[C@@H](O[C@H]2O[C@H](C(=O)[O-])[C@@H](O)[C@H](O)[C@H]2O[C@@H]2O[C@H](C(=O)[O-])[C@@H](O)[C@H](O)[C@H]2O)CC[C@]2(C)[C@H]3C(=O)C=C4[C@@H]5C[C@@](C)(C(=O)O)CC[C@]5(C)CC[C@@]4(C)[C@]3(C)CC[C@@H]12.[K+].[K+]` [dipotassium glycyrrhizinate]: the “effect of permeation enhancer on cochlear NT-3 exposure / NT-3 delivery across the round window membrane” value in data set [2] is on record as “incapable of substantially improving NT-3 delivery across the round window membrane”.
Turning to neurotrophin-3 [NT-3], in [3], the EC50 entry is “less than 20 ng/ml”. In addition, the pI in data set [4] is recorded as 9.5. The “cell junction appearance (immunohistochemical staining)” value in data set [5] is “adherens junctions appeared normal”.
For `CC(=O)NC(CCCCN)C(=O)NC(CC(C)C)C(=O)NC(C)C(=O)NC(CC(C)C)C(=O)NC(CCCCN)C(=O)NC(CC(C)C)C(=O)NC(C)C(=O)NC(CC(C)C)C(=O)NC(CCCCN)C(=O)NC(C)C(=O)NC(CC(C)C)C(=O)NC(CCCCN)C(=O)NC(CC(C)C)C(=O)NC(C)C(=O)NC(C)C(=O)NC(CC(C)C)C(=O)NC(CCCCN)C(=O)NC(CC(C)C)C(=O)NC(C)C(N)=O` (centres unmarked) [peptide (XVI)] (Ac-KLALKLALKALKLAALKLA-NH2; configuration not given here), the “cell junction appearance (immunohistochemical staining)” value in data set [5] is on record as “gaps could be observed between cells”; in data set [5] (setting [8]), “gaps were observed between cells”. Also, the “NT-3 flux compared to control” value in the data set with round window membrane (FIG. 21) is on record as “greater flux”. Besides, the “NT-3 apparent permeability (Papp) compared to control” value in the data set on round window membrane was “greater”; with round window membrane (setting [8]) it was “increased NT-3 permeability”.
As for `CC(C)C[C@H](NC(=O)[C@H](C)NC(=O)[C@H](CC(C)C)NC(=O)[C@H](CCCCN)NC(=O)[C@H](CC(C)C)NC(=O)[C@H](C)NC(=O)[C@H](CC(C)C)NC(=O)[C@@H](N)CCCCN)C(=O)N[C@@H](CCCCN)C(=O)N[C@@H](C)C(=O)N[C@@H](CC(C)C)C(=O)N[C@@H](CCCCN)C(=O)N[C@@H](CC(C)C)C(=O)N[C@@H](C)C(=O)N[C@@H](C)C(=O)N[C@@H](CC(C)C)C(=O)N[C@@H](CCCCN)C(=O)N[C@@H](CC(C)C)C(=O)N[C@@H](C)C(=O)O` (H-KLALKLALKALKLAALKLA-OH; N-terminus and C-terminus assumed), the “tight junction proteins (actin, ZO-1, alpha-catenin) in RWM” value in the data set on guinea pig RWM [6] is “intact”. Further, the “ABR hearing test, change relative to Day 0” value in the data set “ABR/hearing testing” (1 μL of 1% (w/v) peptide HCl salt in Poloxamer 407 (20% w/v), His buffer (pH6), Day 14) is recorded as “no change relative to Day 0”. For the same compound, in the data set “ABR/hearing testing” (50 μL formulation including 0.1% peptide HCl salt, trans-tympanic, 7 and 14 days), the ABR threshold shift result is on record as “no noticeable threshold shift”.
`OCc1ccccc1` [benzyl alcohol, reference compound]: the “effect of permeation enhancer on cochlear NT-3 exposure / NT-3 delivery across the round window membrane” value in data set [7] is “incapable of substantially improving NT-3 delivery across the round window membrane”.
